Assay results: PubChem BioAssay AID1259411 (Chemical Carcinogenesis Research Information System (CCRIS), 2018)
Calls of active or inactive are those of the source. How the calls were made is not given here.

Test system: rodent carcinogenicity bioassays, tumor incidence
Assay: CCRIS carcinogenicity studies
Conditions: Dose: 0, Dose: 0
Outline: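 Archive of carcinogenicity, mutagenicity, tumor promotion and tumor inhibition results drawn from journals, NCI reports and other sources, expert-reviewed; covers 1985-2011 and is no longer updated.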

Compound: O=C(O)C1C(C(=O)O)C2(Cl)C(Cl)=C(Cl)C1(Cl)C2(Cl)Cl (stereo unspecified)
- carcinogen call (Species: MOUSE, Strain/Sex: B6C3F1/FEMALE, Route: ORAL, 620, 1250 PPM IN DIET FOR 103 WK (STUDY DURATION: 104 WK), 620, 1250 PPM IN DIET FOR 103 WK (STUDY DURATION: 104 WK)): inactive; negative
- carcinogen call (Species: MOUSE, Strain/Sex: B6C3F1/MALE, Route: ORAL, 620, 1250 PPM IN DIET FOR 103 WK (STUDY DURATION: 104 WK), 620, 1250 PPM IN DIET FOR 103 WK (STUDY DURATION: 104 WK), Tumor Site: Type of Lesion: LIVER: HEPATOCELLULAR ADENOMA, LIVER: HEPATOCELLULAR CARCINOMA, LIVER: HEPATOCELLULAR ADENOMA OR CARCINOMA, Tumor Site: Type of Lesion: LIVER: HEPATOCELLULAR ADENOMA, LIVER: HEPATOCELLULAR CARCINOMA, LIVER: HEPATOCELLULAR ADENOMA OR CARCINOMA): active; positive
- carcinogen call (Species: RAT, Strain/Sex: F344/FEMALE, Route: ORAL, 620, 1250 PPM IN DIET FOR 103 WK (STUDY DURATION: 104 WK), 620, 1250 PPM IN DIET FOR 103 WK (STUDY DURATION: 104 WK), Tumor Site: Type of Lesion: LIVER: NEOPLASTIC NODULE, LIVER: HEPATOCELLULAR CARCINOMA, LIVER: NEOPLASTIC NODULE OR HEPATOCELLULAR CARCINOMA, UTERUS:, Tumor Site: Type of Lesion: LIVER: NEOPLASTIC NODULE, LIVER: HEPATOCELLULAR CARCINOMA, LIVER: NEOPLASTIC NODULE OR HEPATOCELLULAR CARCINOMA, UTERUS:): active; positive
- carcinogen call (Species: RAT, Strain/Sex: F344/MALE, Route: ORAL, 620, 1250 PPM IN DIET FOR 103 WK (STUDY DURATION: 104 WK), 620, 1250 PPM IN DIET FOR 103 WK (STUDY DURATION: 104 WK), Tumor Site: Type of Lesion: LUNG: ALVEOLAR/BRONCHIOLAR ADENOMA, LUNG: ALVEOLAR/BRONCHIOLAR ADENOMA OR CARCINOMA, LIVER: NEOPLASTIC NODULE, LIVER: NE, Tumor Site: Type of Lesion: LUNG: ALVEOLAR/BRONCHIOLAR ADENOMA, LUNG: ALVEOLAR/BRONCHIOLAR ADENOMA OR CARCINOMA, LIVER: NEOPLASTIC NODULE, LIVER: NE): active; positive

Compound: COc1c(O)c2c(c3cc(C(=O)N4CCc5c4c(O)c(OC)c4[nH]c(C(=O)N6C[C@H]7C[C@@]78C6=CC(=O)c6[nH]cc(C)c68)cc54)[nH]c13)CCN2C(N)=O
- carcinogen call (Species: MOUSE, Strain/Sex: STRAIN-A/MALE,FEMALE, Route: INTRAVENOUS, 2, 4, 8 UG/KG ONCE (STUDY DURATION: 24 WK), 2, 4, 8 UG/KG ONCE (STUDY DURATION: 24 WK), Tumor Site: Type of Lesion: LUNG: ADENOMA): active; positive

Compound: ClC(Cl)C(Cl)Cl
- carcinogen call (Species: MOUSE, Strain/Sex: B6C3F1/FEMALE, Route: GAVAGE, 142, 282 MG/KG N CORN OIL 5 D/WK FOR 78 WK (STUDY DURATION: 90 WK), 142, 282 MG/KG N CORN OIL 5 D/WK FOR 78 WK (STUDY DURATION: 90 WK), Tumor Site: Type of Lesion: LIVER: HEPATOCELLULAR CARCINOMA): active; positive
- carcinogen call (Species: MOUSE, Strain/Sex: B6C3F1/MALE, Route: GAVAGE, 142, 282 MG/KG IN CORN OIL 5 D/WK FOR 78 WK (STUDY DURATION: 90 WK), 142, 282 MG/KG IN CORN OIL 5 D/WK FOR 78 WK (STUDY DURATION: 90 WK), Tumor Site: Type of Lesion: LIVER: HEPATOCELLULAR CARCINOMA): active; positive
- carcinogen call (Species: RAT, Strain/Sex: OSBORNE-MENDEL/FEMALE, Route: GAVAGE, 43, 76 MG/KG IN CORN OIL 5 D/WK FOR 78 WK (STUDY DURATION: 110 WK), 43, 76 MG/KG IN CORN OIL 5 D/WK FOR 78 WK (STUDY DURATION: 110 WK)): inactive; negative
- carcinogen call (Species: RAT, Strain/Sex: OSBORNE-MENDEL/MALE, Route: GAVAGE, 62, 108 MG/KG IN CORN OIL 5 D/WK FOR 78 WK (STUDY DURATION: 110 WK), 62, 108 MG/KG IN CORN OIL 5 D/WK FOR 78 WK (STUDY DURATION: 110 WK), Tumor Site: Type of Lesion: LIVER: NEOPLASTIC NODULE, HEPATOCELLULAR CARCINOMA): equivocal

Compound: O=C([O-])CNCCNCC(=O)[O-].O=C([O-])CNCCNCC(=O)[O-].O=C([O-])CNCCNCC(=O)[O-].[Fe+3].[Fe+3]
- carcinogen call (Species: RAT, Strain/Sex: WISTAR/MALE, Route: INTRAPERITONEAL, 10 MG/KG BW 2/WK FOR 3 MO (STUDY DURATION: 1 YR), Tumor Site: Type of Lesion: KIDNEY: TUMOR): active; positive

Compound: O=[N+]([O-])c1ccc2c3ccccc3c3cccc4ccc1c2c43
- carcinogen call (Species: MOUSE, Strain/Sex: B6C3F1/MALE, Route: INTRAPERITONEAL, 400 NMOL IN 35 µL DMSO ON DAYS 1 (1/7 TOTAL DOSE), 8 (2/7 TOTAL DOSE), AND 15 (4/7 TOTAL DOSE) AFTER BIRTH (STUDY DUR): inactive; negative
